Experimental data from patent US20090197851A1, “THERAPY AND USE OF COMPOUNDS IN THERAPY” (MAX-DELBRUCK-CENTRUM FUR MOLEKULARE MEDIZIN, priority 1999, published 2009).

How the values were obtained:
[1] = tested on: monocyte generated cytokine production in response to LPS; settings: in the concentrations used; Greve et al. Hepatology 1989; cited from earlier work
[2] = tested on: LPS-mediated TNF and IL6 production in whole blood; assay: LPS-stimulated cytokine production in whole blood of healthy control subjects (Milenia whole blood assay); assay type: cell-based, human; settings: LPS 50 pg/ml
Experimental: We have tested the ability of ursodeoxycholic acid (UDCA, FALK Pharma GmbH) to inhibit LPS-mediated TNF production in whole blood of healthy control subjects. Methods: Heparinized whole blood was diluted 1:10 with medium+/-LPS (50 pg/ml), +/-BPI (1 μg/ml), and +/-UDCA ([…]) according to the manufactorer's recommendation ([…] whole blood assay; DPC Biermann, Bad Nauheim, Germany) and incubated for 4 hours at 37° C. In the supernatant, we assessed concentrations of TNF and IL-6 using the semiautomated Immulite system (DPC-Biermann, Bad Nauheim, Germany).

[3] = tested on: LPS-mediated TNF and IL6 production in whole blood; assay: LPS-stimulated cytokine production in whole blood of patients with cachexia due to liver cirrhosis (in vitro application); assay type: cell-based, human; settings: 1 mg/ml UDCA, LPS 50 pg/ml, 4 hours
Experimental: We have tested the ability of ursodeoxycholic acid (UDCA, FALK Pharma GmbH) and BPi to inhibit LPS-mediated TNF production in whole blood of patients with cachexia.
(§1) We studied 4 patients with cachexia due to liver cirrhosis. The patients had all weight loss >7.5% compared to their previous normal weight. […] All patients were studied twice on 2 subsequent days (day “−1” and day “0”), see FIG. 9 to 12.
(§2) Methods: Heparinized whole blood was diluted 1:10 with medium+/−LPS (50 pg/ml), +/−BPI (1 μg/ml), and +/−UDCA (1 μg/ml-1 mg/ml) according to the manufactorer's recommendation (Milenia whole blood assay; DPC Biermann, Bad Nauheim, Germany) and incubated for 4 hours at 37° C. In the supernatant, we assessed concentrations of TNF and IL-6 using the semiautomated Immulite system (DPC-Biermann, Bad Nauheim, Germany).

[4] = tested on: spontaneous production of TNF and IL6 of whole blood; assay: Spontaneous production of TNF and IL6 in whole blood of patients with cachexia due to liver cirrhosis; assay type: cell-based, human; settings: BPi 1 μg/ml, 8 experiments, p<0.05
Experimental: as §1, §2

LPS effects [5] = settings: high concentrations of LBP; cited from earlier work
LPS effects [6] = settings: high concentrations of LBP, as seen during the acute phase response; cited from earlier work
[7] = tested on: LPS-induced TNF synthesis in monocytes; assay: LPS-induced TNF synthesis in monocytes with pre-incubated serum; assay type: cell-based, human
Experimental: LPS-induced cytokine synthesis can be inhibited by serum lipoproteins. However, this is not easily seen experimentally, as it needs a certain pre-incubation procedure (18 hours at 37° C.) that we developed in our laboratory.
Methodology for example 4, 5, 7, and 8: TNF assessment: ELISA established in the laboratory of Dr. Schumann using 2 monoclonal antibodies (Pharmingen Inc., USA). Recombinant LBP: produced in the lab of Dr. Schumann. Lipoproteins: isolated from sera of healthy young volunteers, isolated by density gradient centrifugation, monocytes isolated also from blood of healthy young volunteers
Again, serum lacking lipoproteins was unable to block LPS-induced TNF synthesis. The ability to block LPS-induced TNF synthesis could be restored by addition of isolated lipoproteins. […] Methodology as in example 4

[8] = 100 μg/ml UDCA, whole blood of healthy control subjects, 4 hours
[9] = 1 mg/ml UDCA, whole blood of healthy control subjects diluted 1:10, 4 hours at 37° C.

## C[C@H](CCC(=O)O)[C@H]1CC[C@H]2[C@@H]3[C@H](O)C[C@@H]4C[C@H](O)CC[C@]4(C)[C@H]3CC[C@]12C [chenodeoxycholic acid]
[1]
  effectiveness on monocyte generated cytokine production in response to LPS: less effective

## C[C@H](CCC(=O)O)[C@H]1CC[C@H]2[C@@H]3[C@@H](O)C[C@@H]4C[C@H](O)CC[C@]4(C)[C@H]3CC[C@]12C [UDCA, ursodeoxycholic acid]
[2]; [8]
  reduction of LPS-stimulated IL6 production: 43%
  reduction of LPS-stimulated TNF production: 68%
[2]; [9]
  reduction of LPS-stimulated IL6 production: > 95%
  reduction of LPS-stimulated TNF production: > 95%
[3]; whole blood of 4 patients with cachexia due to liver cirrhosis
  reduction of LPS-stimulated TNF production (on average): > 99%
[3]; whole blood of patients with cachexia due to liver cirrhosis
  reduction of LPS-stimulated IL6 production (on average): 97%

B1: BPi: protein found in human white blood cells that binds to and neutralises endotoxin (protein, UniProt P17213 32-487, looked up)
Bactericidal …: VNPGVVVRISQKGLDYASQQGTAALQKELKRIKIPDYSDSFKIKHLGKGHYSFYSMDIREFQLPSSQISMVPNVGLKFSISNANIKISGKWKAQKRFLKMSGNFDLSIEGMSISADLKLGSNPTSGKPTITCSSCSSHINSVHVHISKSKVGWLIQLFHKKIESALRNKMNSQVCEKVTNSVSSELQPYFQTLPVMTKIDSVAGINYGLVAPPATTAETLDVQMKGEFYSENHHNPPPFAPPVMEFPAAHDRMVYLGLSDYFFNTAGLVYQEAGVLKMTLRDDMIPKESKFRLTTKFFGTFLPEVAKKFPNMKIQIHVSASTPPHLSVQPTGLTFYPAVDVQAFAVLPNSSLASLFLIGMHTTGSMEVSAESNRLVGELKLDRLLLELKHSNIGPFPVELLQDIMNYIVPILVLPRVNEKLQKGFPLPTPARVQLYNVVLQPHQNFLLFGADVVYK
[4]
  spontaneous production of IL6 of whole blood: reduced significantly
  spontaneous production of TNF of whole blood: reduced significantly

B2: LBP: serum protein which binds to LPS; recombinant LBP produced in the lab of Dr. Schumann (protein, UniProt P18428 26-481, looked up)
Lipopolysaccharide-binding …: ANPGLVARITDKGLQYAAQEGLLALQSELLRITLPDFTGDLRIPHVGRGRYEFHSLNIHSCELLHSALRPVPGQGLSLSISDSSIRVQGRWKVRKSFFKLQGSFDVSVKGISISVNLLLGSESSGRPTVTASSCSSDIADVEVDMSGDLGWLLNLFHNQIESKFQKVLESRICEMIQKSVSSDLQPYLQTLPVTTEIDSFADIDYSLVEAPRATAQMLEVMFKGEIFHRNHRSPVTLLAAVMSLPEEHNKMVYFAISDYVFNTASLVYHEEGYLNFSITDDMIPPDSNIRLTTKSFRPFVPRLARLYPNMNLELQGSVPSAPLLNFSPGNLSVDPYMEIDAFVLLPSSSKEPVFRLSVATNVSATLTFNTSKITGFLKPGKVKVELKESKVGLFNAELLEALLNYYILNTFYPKFNDKLAEGFPLPLLKRVQLYDLGLQIHKDFLFLGANVQYMRV
LPS effects [5]
  blocking of LPS effects in a murine sepsis model: completely block LPS effects
LPS effects [6]
  blocking of LPS effects in vitro: completely block LPS effects
[7]; high concentrations added to normal serum (containing lipoproteins)
  LPS-stimulated TNF production in a monocyte stimulation system: reduces LPS-stimulated TNF production
[7]; titrated into lipoprotein-deficient serum, high levels of LBP
  inhibition of LPS activity (LPS-induced TNF production): inhibit LPS activity
